Source: patent US20260069596A1 (Cardiff Oncology, Inc., priority 2024, published 2026)
“Also recorded” adds a separate entry of the source.

Columns and labels:
[1] = test system: RAS^WT colorectal cancer patient derived xenograft (PDX) models; assay: Example 2: antitumor activity in RAS^WT colorectal cancer PDX models; format: in vivo, mice
Procedure: Tumor volumes (TV) were measured twice a week, and % tumor volume change (TVC) from baseline was calculated as follows: (TVi/TV0−1)×100. Tumor stasis defined as TVC between 0 and 20%, and tumor regression as TVC less than 0% at last measurement. Results are presented as mean±SEM.

[2] = cited from earlier work
CYP1A2 = target: T1, CYP1A2 (Homo sapiens, UniProt P05177); details: human liver microsomes; cited from earlier work
T1 construct: was investigated using human liver microsomes; from tissue; host or cells: human liver microsomes
T1 sequence (P05177 1-516): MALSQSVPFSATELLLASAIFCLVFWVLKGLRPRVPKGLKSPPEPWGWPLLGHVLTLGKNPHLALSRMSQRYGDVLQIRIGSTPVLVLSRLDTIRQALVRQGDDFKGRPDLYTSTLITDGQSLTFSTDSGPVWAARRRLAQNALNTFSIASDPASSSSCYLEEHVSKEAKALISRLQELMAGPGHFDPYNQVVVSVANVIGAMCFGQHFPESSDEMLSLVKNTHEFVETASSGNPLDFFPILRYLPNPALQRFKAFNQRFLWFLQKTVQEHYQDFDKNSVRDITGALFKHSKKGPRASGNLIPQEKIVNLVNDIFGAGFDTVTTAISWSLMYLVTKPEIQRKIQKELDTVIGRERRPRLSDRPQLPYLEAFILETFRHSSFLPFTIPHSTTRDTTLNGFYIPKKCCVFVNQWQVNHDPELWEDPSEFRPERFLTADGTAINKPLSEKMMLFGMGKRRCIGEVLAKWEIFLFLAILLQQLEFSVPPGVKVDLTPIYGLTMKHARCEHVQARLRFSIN

[3] = test system: advanced/metastatic solid tumors; details: single agent; cited from earlier work

CN1CCN(c2ccc(OC(F)(F)F)c(Nc3ncc4c(n3)-c3c(c(C(N)=O)nn3CCO)CC4)c2)CC1 [Onvansertib, 1-(2-hydroxyethyl)-8-{[5-(4-methylpiperazin-1-yl)-2-(trifluoromethoxy)phenyl]amino}-4,5-dihydro-1H-pyrazolo[4,3-h]quinazoline-3-carboxamide]
models with tumor stasis or regression ([1]; 7 PDXs sensitive to cetuximab): five | models with potent antitumor activity ([1]; PDX models sensitive to cetuximab, 71%): 5/7 | models with tumor regression (TVC less than 0%) ([1]; all 20 models): 11 models | models with tumor stasis (TVC between 0 and 20%) ([1]; all 20 models): 3 models | DLTs ([2]; doses of 6, 12, and 24 mg/m^2/day, oral, 5 consecutive days every 3 weeks): No DLTs | primary dose-limiting toxicities / primary toxicities ([2]; phase I, patients with advanced/metastatic solid tumors): neutropenia and thrombocytopenia; also recorded: thrombocytopenia and neutropenia | recovery time of hematologic toxicities ([2]; reversible toxicities): ≤ 3 weeks | inhibitory effect against CYP1A2 (CYP1A2): No significant inhibitory effects | best observed treatment response [3]: stable disease
